Laboratory results: ChEMBL document CHEMBL1142886, “Substrate specificity analysis and inhibitor design of homoisocitrate dehydrogenase” (Bioorg Med Chem, 2007)
Calls of active or inactive are those of the source. The rule behind the calls is not given here.

Assays:
Deinococcus radiodurans [1] = experiment: Activity of Deinococcus radiodurans homoisocitrate dehydrogenase
Deinococcus radiodurans [2] = experiment: Ratio of kcat/km of Deinococcus radiodurans homoisocitrate dehydrogenase
Deinococcus radiodurans [3] = experiment: Activity of Deinococcus radiodurans homoisocitrate dehydrogenase above 10 mM
[4] = target: Homoisocitrate dehydrogenase, mitochondrial (Saccharomyces cerevisiae S288c) (UniProt P40495); experiment: Activity of recombinant Saccharomyces cerevisiae homoisocitrate dehydrogenase expressed in Escherichia coli Rosetta cells above 10 mM
Chain of Homoisocitrate dehydrogenase, mitochondrial (Saccharomyces cerevisiae S288c) (P40495 whole entry): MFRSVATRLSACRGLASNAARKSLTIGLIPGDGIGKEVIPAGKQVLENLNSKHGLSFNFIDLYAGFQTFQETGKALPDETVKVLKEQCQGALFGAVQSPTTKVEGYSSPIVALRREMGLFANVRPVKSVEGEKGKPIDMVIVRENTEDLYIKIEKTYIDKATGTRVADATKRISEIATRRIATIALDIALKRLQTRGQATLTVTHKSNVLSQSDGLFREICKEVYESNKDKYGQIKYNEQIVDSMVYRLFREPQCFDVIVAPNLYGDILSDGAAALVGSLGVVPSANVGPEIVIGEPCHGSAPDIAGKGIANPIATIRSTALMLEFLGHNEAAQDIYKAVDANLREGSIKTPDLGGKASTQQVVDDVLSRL

Compound	Km (Deinococcus radiodurans [1])	kcat (Deinococcus radiodurans [1])	kcat/Km (Deinococcus radiodurans [2])	Activity (Deinococcus radiodurans [3])	Activity [4]
O=C(O)CCCC[C@H](C(=O)O)[C@@H](O)C(=O)O	140 µM	40 s⁻¹	290000 M⁻¹ s⁻¹		
O=C(O)[C@@H](CCCCO)[C@@H](O)C(=O)O	470 µM	28 s⁻¹	60000 M⁻¹ s⁻¹		
C=CCCC[C@H](C(=O)O)[C@@H](O)C(=O)O	2700 µM	3 s⁻¹	1100 M⁻¹ s⁻¹		
NCCC[C@H](C(=O)O)[C@@H](O)C(=O)O				inactive	inactive
O=C(O)CCC[C@H](C(=O)O)[C@@H](O)C(=O)O	200 µM	40 s⁻¹	200000 M⁻¹ s⁻¹		
O=C(O)C[C@@H](O)C(=O)O				inactive	inactive
O=C(O)[C@H](O)[C@@H](C(=O)O)c1ccccc1				inactive	inactive
CCCCC[C@H](C(=O)O)[C@@H](O)C(=O)O	3200 µM	3.7 s⁻¹	1200 M⁻¹ s⁻¹		

The remaining lines, values ahead:

Km (Deinococcus radiodurans [1])	kcat (Deinococcus radiodurans [1])	kcat/Km (Deinococcus radiodurans [2])	Activity (Deinococcus radiodurans [3])	Activity [4]	Compound
1000 µM	43 s⁻¹	430000 M⁻¹ s⁻¹			CC[C@H](C(=O)O)[C@@H](O)C(=O)O
			inactive	inactive	O=C(O)[C@@H](O)[C@@H](O)C(=O)O
780 µM	53 s⁻¹	68000 M⁻¹ s⁻¹			CCC[C@H](C(=O)O)[C@@H](O)C(=O)O
2800 µM	37 s⁻¹	13000 M⁻¹ s⁻¹			C=CC[C@H](C(=O)O)[C@@H](O)C(=O)O
83 µM	0.77 s⁻¹	9300 M⁻¹ s⁻¹			C=C[C@H](C(=O)O)[C@@H](O)C(=O)O
				inactive	O=C(O)C[C@H](C(=O)O)[C@@H](O)C(=O)O
				inactive	CC(C)[C@H](C(=O)O)[C@@H](O)C(=O)O
3600 µM	19 s⁻¹	5300 M⁻¹ s⁻¹			C[C@H](C(=O)O)[C@@H](O)C(=O)O
590 µM	25 s⁻¹	42000 M⁻¹ s⁻¹			O=C(O)[C@@H](CCO)[C@@H](O)C(=O)O
510 µM	29 s⁻¹	200000 M⁻¹ s⁻¹			O=C(O)[C@@H](CCCO)[C@@H](O)C(=O)O
